Columns and labels:
HDAC = experiment: In vitro fluorescent histone deacetylase assay (Biomol HDAC fluorescent activity kit, HeLa cell nuclear extract); format: biochemical; conditions: 100 μM compound; HeLa cell nuclear extract as source of HDAC activity; 50 μM substrate, 10 min at room temperature
In short: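 HeLa nuclear extract as HDAC source with fluorogenic substrate at 50 μM final, reacting 10 min at room temperature before stop. Compounds serially diluted in assay buffer, final DMSO ≤2%; fluorescence read at ex 355 nm / em 460 nm.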

HCT116 cells = experiment: Whole cell cytotoxicity assay: Sulforhodamine B; format: cell-based; conditions: Homo sapiens, HCT-116; 100 μM compound; 48 hours incubation with drug; Sulforhodamine B staining; read-out: % Inhibition of HCT116 cell growth @ 100 μM

For `O=C(NO)c1cnc(N2CCc3c([nH]c4ccc(-c5cccc(CN6CCOCC6)c5)cc34)C2)nc1` [Example 70, N-hydroxy-2-{6-[3-(morpholin-4-ylmethyl)phenyl]-1,3,4,9-tetrahydro-2H-b-carbolin-2-yl}pyrimidine-5-carboxamide], the “% Inhibition of HDAC @ 100 μM” value (HDAC) was 99.9% and the inhibition at 100 µM (HCT116 cells) was 97.9%.
